ChEMBL document CHEMBL1148727, “Discovery of 1,4-dihydroxy-2-naphthoate [corrected] prenyltransferase inhibitors: new drug leads for multidrug-resistant gram-positive pathogens” (2007)
Values after ≈ are worked out from the molar mass of the structure shown.

How the values were obtained:
Type in all cases: functional
[1] = test system: Mycobacterium tuberculosis; experiment: Antibacterial activity against isoniazid-resistant Mycobacterium tuberculosis H37Rv after 18 hrs by agar plate dilution method
[2] = test system: Mycobacterium tuberculosis variant bovis BCG; experiment: Antibacterial activity against Mycobacterium bovis BCG Tokyo after 18 hrs by agar plate dilution method
[3] = test system: Mycobacterium tuberculosis; experiment: Antibacterial activity against rifampicin-resistant Mycobacterium tuberculosis H37Rv after 18 hrs by agar plate dilution method

With C=CCN(C)CCCCCCCCOc1ccc(C(=O)c2ccc(Cl)cc2)c(O)c1 the MIC [1] was 1.5 µg/mL (≈ 3.49 µM), the MIC [2] was 3.1 µg/mL (≈ 7.21 µM) and the MIC [3] was 1.5 µg/mL (≈ 3.49 µM).

For NNC(=O)c1ccncc1 [ISONIAZID], the MIC [1] was > 25 µg/mL, the MIC [2] was 0.1 µg/mL (≈ 0.729 µM) and the MIC [3] was 0.05 µg/mL (≈ 0.365 µM).

For CO[C@H]1/C=C/O[C@@]2(C)Oc3c(C)c(O)c4c(O)c(c(/C=N/N5CCN(C)CC5)c(O)c4c3C2=O)NC(=O)/C(C)=C\C=C\[C@H](C)[C@H](O)[C@@H](C)[C@@H](O)[C@@H](C)[C@H](OC(C)=O)[C@@H]1C [RIFAMPIN], the MIC [1] was 0.2 µg/mL (≈ 0.243 µM), the MIC [2] was 0.1 µg/mL (≈ 0.122 µM) and the MIC [3] was > 25 µg/mL.
